Data as given in ChEMBL document CHEMBL1145190, “CoMFA and CoMSIA analyses of Pneumocystis carinii dihydrofolate reductase, Toxoplasma gondii dihydrofolate reductase, and rat liver dihydrofolate reductase” (J Med Chem, 2005).
Values joined by “and” are separate entries in the source; they are usually repeats but may differ in a detail not shown here. Equal entries are not always repeated.

Legend:
Dihydrofolate reductase [1] = biological target: T1, Dihydrofolate reductase (Pneumocystis carinii, UniProt P16184); experiment: (§1) Inhibition of Pneumocystis carinii dihydrofolate reductase
T1 sequence (P16184 whole entry): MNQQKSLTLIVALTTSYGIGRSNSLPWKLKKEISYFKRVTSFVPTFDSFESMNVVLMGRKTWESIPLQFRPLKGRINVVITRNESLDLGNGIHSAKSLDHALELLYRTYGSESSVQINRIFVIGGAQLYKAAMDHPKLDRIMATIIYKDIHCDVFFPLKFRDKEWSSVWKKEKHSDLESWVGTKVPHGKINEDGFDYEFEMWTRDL

Dihydrofolate reductase [2] = biological target: T2, Dihydrofolate reductase (Rattus norvegicus, UniProt Q920D2); experiment: (§2) Inhibition of rat liver dihydrofolate reductase
T2 sequence (Q920D2 whole entry): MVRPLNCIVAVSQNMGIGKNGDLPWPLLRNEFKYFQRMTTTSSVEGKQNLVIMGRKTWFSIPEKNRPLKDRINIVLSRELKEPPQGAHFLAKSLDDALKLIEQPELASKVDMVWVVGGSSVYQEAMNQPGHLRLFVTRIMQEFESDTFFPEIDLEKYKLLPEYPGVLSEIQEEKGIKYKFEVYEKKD

Dihydrofolate reductase [3] = biological target: T2, Dihydrofolate reductase; experiment: as §2; remark: listed apart in the source
[4] = biological target: T3, Bifunctional dihydrofolate reductase-thymidylate synthase (Toxoplasma gondii, UniProt Q07422); experiment: (§3) Inhibition of Toxoplasma gondii dihydrofolate reductase
T3 sequence (Q07422 whole entry): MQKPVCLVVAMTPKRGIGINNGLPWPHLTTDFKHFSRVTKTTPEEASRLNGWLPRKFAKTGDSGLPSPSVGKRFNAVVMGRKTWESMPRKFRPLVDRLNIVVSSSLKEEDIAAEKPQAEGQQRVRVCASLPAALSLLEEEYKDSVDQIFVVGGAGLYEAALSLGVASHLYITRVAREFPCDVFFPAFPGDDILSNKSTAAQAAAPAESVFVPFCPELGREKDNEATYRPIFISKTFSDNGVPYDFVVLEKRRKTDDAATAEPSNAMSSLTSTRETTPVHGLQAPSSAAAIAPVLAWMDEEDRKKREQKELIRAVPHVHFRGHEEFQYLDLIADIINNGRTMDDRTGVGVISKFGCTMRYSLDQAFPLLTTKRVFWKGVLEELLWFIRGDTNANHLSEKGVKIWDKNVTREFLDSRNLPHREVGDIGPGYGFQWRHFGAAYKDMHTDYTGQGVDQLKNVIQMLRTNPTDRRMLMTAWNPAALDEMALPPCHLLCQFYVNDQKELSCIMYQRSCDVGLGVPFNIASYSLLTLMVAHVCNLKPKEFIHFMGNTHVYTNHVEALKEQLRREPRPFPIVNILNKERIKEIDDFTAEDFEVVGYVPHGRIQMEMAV

Dihydrofolate reductase [5] = biological target: T1, Dihydrofolate reductase; experiment: as §1; remark: listed apart in the source
[6] = biological target: T3, Bifunctional dihydrofolate reductase-thymidylate synthase; experiment: as §3; remark: listed apart in the source

Row | Compound | IC50 (Dihydrofolate reductase [1]) | IC50 (Dihydrofolate reductase [2]) | IC50 (Dihydrofolate reductase [3]) | IC50 (Dihydrofolate reductase [5]) | IC50 [4] | IC50 [6]
1 | COc1cc(CN(C)c2ccc3nc(N)nc(N)c3c2)cc(OC)c1 | 23.3 nM |  |  |  |  | 
2 | COc1ccc(-c2ccccc2)cc1NNCc1cnc2nc(N)nc(N)c2c1C | 64 nM | 440 nM | 440 nM | 64 nM | 68 nM | 68.1 nM
3 | Nc1nc(N)c2cc(NCc3cccc4ccccc34)ccc2n1 | 720 nM | 190 nM | 190 nM | 720 nM | 99 nM | 99 nM
4 | COc1cc(NCc2cnc3nc(N)nc(N)c3c2C)c(O)cc1-n1cccc1 | 350 nM | 230 nM | 230 nM | 350 nM | 33 nM | 33 nM
5 | Cc1c(C)c(-n2cccc2)c(C)c(C)c1NNCc1cnc2nc(N)nc(N)c2c1C | 620 nM | 170 nM | 170 nM | 620 nM | 75 nM | 75 nM
6 | Nc1nc(N)c2nc(CSc3ccc4ccccc4c3)ccc2n1 | 380 nM |  |  | 380 nM |  | 
7 | Nc1nc(N)c2nc(CNc3cc(Cl)ccc3Cl)ccc2n1 | 1600 nM |  |  | 1600 nM |  | 
8 | Nc1nc(N)c2nc(CNc3ccc(Cl)c(Cl)c3)ccc2n1 | 410 nM |  |  | 410 nM |  | 
9 | Nc1nc(N)c2nc(CNc3ccc(Cl)cc3Cl)ccc2n1 | 730 nM |  |  | 730 nM |  | 
10 | Nc1nc(N)c2nc(CNc3cccc4ccccc34)ccc2n1 | 230 nM |  |  | 230 nM |  | 
11 | COc1ccc(N(C)Cc2ccc3nc(N)nc(N)c3n2)c(OC)c1 | 160 nM |  |  | 160 nM |  | 
12 | CN(Cc1ccc2nc(N)nc(N)c2n1)c1ccc(Cl)c(Cl)c1 | 38 nM |  |  | 38 nM |  | 
13 | Nc1nc(N)c2nc(CSc3ccccc3)ccc2n1 | 2000 nM |  |  | 2000 nM |  | 
14 | COc1ccc(OC)c(N(C)Cc2ccc3nc(N)nc(N)c3n2)c1 | 210 nM |  |  | 210 nM | 250 nM | 
15 | Cc1c(CN(C)c2ccc(Cl)cc2)cnc2nc(N)nc(N)c12 | 80 nM | 170 nM | 170 nM | 80 nM | 1.7 nM | 1.7 nM
16 | COc1cc(C(C)Nc2cnc3nc(N)nc(N)c3c2)cc(OC)c1OC (stereo unspecified) |  |  |  |  |  | 182 nM
17 | COc1cc(CN(C)c2cnc3nc(N)nc(N)c3c2)cc(OC)c1 |  |  |  |  | 31 nM | 31 nM
18 | CN(Cc1cccc2ccccc12)c1ccc2nc(N)nc(N)c2c1 | 17 nM | 17 nM | 17 nM | 17 nM |  | 21 nM
19 | COc1ccc(N(C)Cc2ccc3nc(N)nc(N)c3n2)cc1 | 250 nM |  |  | 250 nM |  | 

Row | Compound | IC50 (Dihydrofolate reductase [1]) | IC50 (Dihydrofolate reductase [2]) | IC50 (Dihydrofolate reductase [3]) | IC50 (Dihydrofolate reductase [5]) | IC50 [4] | IC50 [6]
20 | CN(Cc1ccc2nc(N)nc(N)c2n1)c1c(Cl)cccc1Cl | 170 nM |  |  | 170 nM |  | 
21 | COc1cc(N(C)Cc2ccc3nc(N)nc(N)c3n2)cc(OC)c1OC | 120 nM | 52 nM | 52 nM | 120 nM | 44 nM | 44 nM
22 | COc1ccc(NCc2ccc3nc(N)nc(N)c3n2)cc1 | 849 nM |  |  | 850 nM |  | 
23 | COc1cccc(NCc2ccc3nc(N)nc(N)c3n2)c1 | 1700 nM |  |  | 1700 nM |  | 
24 | Nc1nc(N)c2nc(CNc3cc(Cl)c(Cl)c(Cl)c3)ccc2n1 | 661 nM |  |  | 660 nM |  | 
25 | COc1ccccc1NCc1ccc2nc(N)nc(N)c2n1 | 2700 nM |  |  | 2700 nM |  | 
26 | CN(Cc1ccc2nc(N)nc(N)c2n1)c1cccc2ccccc12 | 40 nM |  |  | 40 nM |  | 
27 | Nc1nc(N)c2nc(CNc3cccc(Cl)c3)ccc2n1 | 2000 nM |  |  | 2000 nM |  | 
28 | CN(Cc1ccc2nc(N)nc(N)c2n1)c1ccc(Cl)cc1Cl | 500 nM |  |  | 500 nM |  | 
29 | Nc1nc(N)c2nc(CNc3c(Cl)cccc3Cl)ccc2n1 | 1000 nM |  |  | 1000 nM |  | 
30 | CN(Cc1ccc2nc(N)nc(N)c2n1)c1ccccc1 | 290 nM |  |  | 290 nM | 0.84 nM | 
31 | COc1cc(NCc2ccc3nc(N)nc(N)c3n2)cc(OC)c1OC | 2000 nM |  |  | 2000 nM |  | 
32 | Nc1nc(N)c2nc(CSc3cccc4ccccc34)ccc2n1 | 470 nM | 252 nM |  | 470 nM |  | 
33 | CN(Cc1ccc2nc(N)nc(N)c2n1)c1ccc2ccccc2c1 | 52 nM |  |  | 52 nM |  | 
34 | COc1ccc(NCc2ccc3nc(N)nc(N)c3n2)cc1OC | 900 nM |  |  | 900 nM |  | 
35 | COc1ccc(N(C)Cc2ccc3nc(N)nc(N)c3n2)cc1OC | 91 nM | 270 nM |  | 91 nM |  | 
36 | COc1cc(-n2ccc3c4c(N)nc(N)nc4nc(=O)c-3c2)cc(OC)c1OC | 4280 nM | 1120 nM | 1120 nM | 4280 nM | 240 nM and 52 nM | 240 nM and 52 nM
37 | COc1ccccc1NCc1cnc2nc(N)nc(N)c2c1C | 68.9 nM | 80.1 nM | 80.1 nM | 68.9 nM | 7.4 nM | 7.4 nM

Second part, led by results:

Row | IC50 (Dihydrofolate reductase [1]) | IC50 (Dihydrofolate reductase [2]) | IC50 (Dihydrofolate reductase [3]) | IC50 (Dihydrofolate reductase [5]) | Compound | IC50 [4] | IC50 [6]
38 |  | 160 nM |  |  | CN(CC1CCc2nc(N)nc(N)c2C1)c1cccc2ccccc12 (stereo unspecified) |  | 
39 |  |  | 38 nM |  | COc1cc(N(C)CC2CCc3nc(N)nc(N)c3C2)cc(OC)c1OC (stereo unspecified) |  | 
40 | 116000 nM | 22700 nM | 22700 nM | 116000 nM | COc1cc(OC)c(CN(C)c2ccc3nc(N)nc(N)c3c2)c(OC)c1 | 950 nM | 950 nM
41 |  | 3500 nM | 3500 nM |  | COc1cc(NNCc2cnc3nc(N)nc(N)c3c2C)c(-n2cccc2)cc1OC | 600 nM | 600 nM
42 | 940 nM | 128 nM | 128 nM | 940 nM | Nc1nc(N)c2c(n1)CCC(CNc1cccc(Cl)c1)C2 (stereo unspecified) | 78 nM | 78 nM
43 | 30 nM | 18 nM | 18 nM | 30 nM | Cc1c(CN(C)c2ccccc2)cnc2nc(N)nc(N)c12 | 6.3 nM | 6.3 nM
44 | 5500 nM |  |  | 5500 nM | COc1ccc(NCc2ccc3nc(N)nc(N)c3n2)c(OC)c1 |  | 
45 |  |  | 1200 nM |  | COc1cc(OC)c(CNc2cnc3nc(N)nc(N)c3c2)c(OC)c1 |  | 
46 | 14100 nM | 3300 nM | 3300 nM | 14100 nM | COc1ccc(CNc2cnc3nc(N)nc(N)c3c2)c(OC)c1OC | 350 nM | 350 nM
47 | 1600 nM |  |  | 1600 nM | Nc1nc(N)c2nc(CNc3ccc4ccccc4c3)ccc2n1 |  | 
48 | 7710 nM | 2100 nM | 2100 nM | 7700 nM | COc1cc(CCC2CNc3nc(N)nc(N)c3C2)cc(OC)c1OC (stereo unspecified) | 1100 nM | 1100 nM
49 |  | 7.21 nM |  |  | COc1cc(N(C)Cc2cnc3nc(N)nc(N)c3c2C)cc(OC)c1OC |  | 
50 | 497 nM |  |  | 497 nM | CCN(Cc1cnc2nc(N)nc(N)c2c1C)c1cc(OC)c(OC)c(OC)c1 |  | 
51 | 250 nM |  |  | 250 nM | CN(Cc1ccc2nc(N)nc(N)c2n1)c1cc(Cl)c(Cl)c(Cl)c1 |  | 
52 | 4400 nM |  |  | 4400 nM | COc1ccc(OC)c(NCc2ccc3nc(N)nc(N)c3n2)c1 |  | 
53 | 530 nM |  |  | 530 nM | Nc1nc(N)c2nc(CNc3ccccc3Cl)ccc2n1 |  | 
54 | 210 nM |  |  | 210 nM | CN(Cc1ccc2nc(N)nc(N)c2n1)c1ccccc1Cl |  | 
55 | 510 nM |  |  | 510 nM | COc1ccccc1N(C)Cc1ccc2nc(N)nc(N)c2n1 |  | 
56 | 1700 nM |  |  | 1700 nM | Nc1nc(N)c2nc(CNc3ccccc3)ccc2n1 |  | 
57 | 97 nM |  |  | 97 nM | COc1cccc(N(C)Cc2ccc3nc(N)nc(N)c3n2)c1 |  | 
58 | 150 nM |  |  | 150 nM | CN(Cc1ccc2nc(N)nc(N)c2n1)c1cc(Cl)ccc1Cl |  | 
